SMILES strings stand for the structures. Converted amounts (≈) assume the structure as drawn.

Format in all cases: functional
In test [1] the test system is Mycobacterium tuberculosis. The test can be described thus: AntiMycobacterium tuberculosis activity Non-Replicating form: Average MIC90 (uM).
Test [2] deals with Mycobacterium tuberculosis. The test can be described thus: AntiMycobacterium tuberculosis activity 1-week GAST/Fe MIC (uM). The settings on record: 168 h.
The test system of test [3] is Mycobacterium tuberculosis. The test can be described thus: AntiMycobacterium tuberculosis activity 2-week GAST/Fe MIC (uM). The settings on record: 336 h.
Test [4] concerns Mycobacterium tuberculosis. The test can be described thus: AntiMycobacterium tuberculosis activity 1-week 7H9/ADC/Tw MIC (uM). The note with it: 168 h.
The subject of test [5] is Mycobacterium tuberculosis. The test can be described thus: AntiMycobacterium tuberculosis activity 2-week 7H9/ADC/Tw MIC (uM). The settings on record: 336 h.
Test [6] has as its system Mycobacterium tuberculosis. Nature of the test: AntiMycobacterium tuberculosis activity 2-week Alamar Blue 7H9/ADC/Tw MIC (uM). The note with it: 336 h. A general note: Alamar Blue is a resazurin reagent that responds to reducing activity.
Test [7] deals with Mycobacterium tuberculosis. The test can be described thus: AntiMycobacterium tuberculosis activity 1-week 7H9/glucose/BSA/Tx MIC (uM). The settings on record: 168 h.
Test [8] relates to Mycobacterium tuberculosis. Nature of the test: AntiMycobacterium tuberculosis activity 2-week 7H9/glucose/BSA/Tx MIC (uM). The note with it: 336 h.
For test [9], the system named is Mycobacterium tuberculosis. The test can be described thus: AntiMycobacterium tuberculosis activity 1-week 7H9/DPPC/cholesterol/BSA/Tx MIC (uM). The note with it: 168 h.
Test [10] has as its system Mycobacterium tuberculosis. The test can be described thus: AntiMycobacterium tuberculosis activity 2-week 7H9/DPPC/cholesterol/BSA/Tx MIC (uM). The note with it: 336 h.
Test [11] deals with Mycobacterium tuberculosis. Nature of the test: AntiMycobacterium tuberculosis activity 1-week 7H9/cholesterol/BSA/Tx MIC (uM). The settings on record: 168 h.
The test system of test [12] is Mycobacterium tuberculosis. Nature of the test: AntiMycobacterium tuberculosis activity 2-week Alamar Blue 7H9/cholesterol/BSA/Tx MIC (uM). The note with it: 336 h.
The test system of test [13] is Mycobacterium tuberculosis. The test can be described thus: (§1) AntiMycobacterium tuberculosis activity day 10 in 7H9/2.5mM butyrate/pH6/0.1mM nitrite MIC90 (uM). The note with it: 240 h.
Test [14] concerns Mycobacterium tuberculosis. The test can be described thus: AntiMycobacterium tuberculosis activity day 21 in 7H9/2.5mM butyrate/pH6/0.1mM nitrite MIC90 (uM). The settings on record: 504 h.
Test [15] concerns Mycobacterium tuberculosis. Described as §1. The note with it: 240 h. This is another data set of the same source.
For test [16], the system named is Mycobacterium tuberculosis. Nature of the test: AntiMycobacterium tuberculosis activity day 21 MIC99 in 7H9/2.5mM butyrate/pH6/0.1mM nitrite MIC99 (uM). The note with it: 504 h.
The test system of test [17] is Mycobacterium tuberculosis. The test can be described thus: AntiMycobacterium tuberculosis activity Replicating form: Average MIC90 (uM).
For another test, the system named is HepG2. The test can be described thus: HepG2 CC50 (uM) Cytotoxicity. The note with it: Homo sapiens.

In general, MIC90 refers to the lowest concentration that inhibits either 90% of growth or 90% of the strains tested, depending on the study. Read a high MIC90 as weaker potency. By MIC is commonly meant the least concentration at which growth counts as inhibited. One may read the CC50 as the concentration at which the toxic effect on the cells reaches its halfway point. With `O=C(NCc1cc(Cl)cc(Cl)c1)c1c(C(F)(F)F)nc2ccccn12`, the MIC90 in [1] was 2.93 µM (≈ 1.14 µg/mL); in test [13] it was 1.5 µM (≈ 0.582 µg/mL); in test [14] it was 12.5 µM (≈ 4.85 µg/mL); in [15] it was more than 50 µM; in test [17], more than 100 µM. For the same molecule, the MIC in [2] was 0.1 µM (≈ 0.0388 µg/mL); in test [3], 0.39 µM (≈ 0.151 µg/mL); in test [4] it was 12.5 µM (≈ 4.85 µg/mL); in test [5] it was 37 µM (≈ 14.4 µg/mL); in [6] it was 12.5 µM (≈ 4.85 µg/mL); in test [7], more than 50 µM. In addition, the MIC in [8] was more than 50 µM; in test [9] it was 4.7 µM (≈ 1.82 µg/mL); in test [10], 12.5 µM (≈ 4.85 µg/mL); in test [11], 2.3 µM (≈ 0.893 µg/mL); in test [12], 1.2 µM (≈ 0.466 µg/mL); in test [16], more than 50 µM. In addition, the CC50 with HepG2 came out at 38.3 µM.

Regarding `Cc1ccc2nc(Cl)c(CNCc3cccs3)cc2c1`, the MIC90 in test [1] was 93.7 µM (≈ 28.4 µg/mL); in test [13], more than 50 µM; in [14], more than 50 µM; in [15], more than 50 µM; in test [17] it was more than 100 µM. The MIC in [2] was 0.78 µM (≈ 0.236 µg/mL); in [3], 1.56 µM (≈ 0.472 µg/mL); in test [4], more than 50 µM; in [5], more than 50 µM; in [6], 50 µM (≈ 15.1 µg/mL); in [7] it was more than 50 µM. The MIC is more than 50 µM in test [8]; 12.5 µM (≈ 3.79 µg/mL) in [9]; more than 50 µM in test [10]; 19 µM (≈ 5.75 µg/mL) in test [11]; 37 µM (≈ 11.2 µg/mL) in [12]; more than 50 µM in test [16]. Besides, in the test with HepG2, the CC50 is more than 100 µM.

In the case of `CCCCc1ccc(C(=O)Nc2nccc3ccccc23)nc1`, the MIC90 in test [1] was 61 µM (≈ 18.6 µg/mL); in test [13], 3.12 µM (≈ 0.953 µg/mL); in [14] it was 6.25 µM (≈ 1.91 µg/mL); in [15], 3.12 µM (≈ 0.953 µg/mL); in test [17], 39.1 µM (≈ 11.9 µg/mL). The minimum inhibitory concentration (MIC) was 0.78 µM (≈ 0.238 µg/mL) in [2]; 1.56 µM (≈ 0.476 µg/mL) in test [3]; 4.7 µM (≈ 1.44 µg/mL) in test [4]; 6.25 µM (≈ 1.91 µg/mL) in [5]; 6.25 µM (≈ 1.91 µg/mL) in [6]; 6.25 µM (≈ 1.91 µg/mL) in [7]. The MIC in test [8] is 9.4 µM (≈ 2.87 µg/mL); in test [9], 2.3 µM (≈ 0.702 µg/mL); in [10], 4.7 µM (≈ 1.44 µg/mL); in test [11], 0.78 µM (≈ 0.238 µg/mL); in [12], 1.56 µM (≈ 0.476 µg/mL); in test [16], 6.25 µM (≈ 1.91 µg/mL). This molecule had a CC50 in the test with HepG2 of 73.8 µM.

As for `c1ccc(C[C@@H]2CN(c3nccc(Oc4ccc(-n5ccnc5)cc4)n3)CCN2)cc1`, the MIC90 in test [1] was 38.1 µM (≈ 15.7 µg/mL); in test [13], 25 µM (≈ 10.3 µg/mL); in test [14], 25 µM (≈ 10.3 µg/mL); in test [15], 50 µM (≈ 20.6 µg/mL); in test [17], 16.5 µM (≈ 6.82 µg/mL). The MIC in test [2] amounted to 37 µM (≈ 15.3 µg/mL); in test [3] it was 37 µM (≈ 15.3 µg/mL); in test [4], 50 µM (≈ 20.6 µg/mL); in [5] it was 50 µM (≈ 20.6 µg/mL); in [6], 19 µM (≈ 7.84 µg/mL); in test [7] it was 37 µM (≈ 15.3 µg/mL). Besides, the MIC in test [8] is 50 µM (≈ 20.6 µg/mL); in [9], 25 µM (≈ 10.3 µg/mL); in test [10] it was 37 µM (≈ 15.3 µg/mL); in test [11] it was 9.4 µM (≈ 3.88 µg/mL); in test [12], 12.5 µM (≈ 5.16 µg/mL); in test [16], 50 µM (≈ 20.6 µg/mL). The molecule also gave a CC50 with HepG2 of 29 µM.

`O=C(Nc1cccnc1)c1c(O)c2cccc3c2n(c1=O)CC3`: the MIC90 in [1] was 7.75 µM (≈ 2.38 µg/mL); in test [13] it was 6.25 µM (≈ 1.92 µg/mL); in [14], 12.5 µM (≈ 3.84 µg/mL); in test [15], more than 50 µM; in [17], 8.35 µM (≈ 2.57 µg/mL). Further, the MIC came out at 3.13 µM (≈ 0.962 µg/mL) in [2]; 3.13 µM (≈ 0.962 µg/mL) in test [3]; 25 µM (≈ 7.68 µg/mL) in test [4]; 25 µM (≈ 7.68 µg/mL) in [5]; 25 µM (≈ 7.68 µg/mL) in [6]; 6.25 µM (≈ 1.92 µg/mL) in test [7]. Moreover, the MIC in [8] was 9.4 µM (≈ 2.89 µg/mL); in test [9], 12.5 µM (≈ 3.84 µg/mL); in test [10], 12.5 µM (≈ 3.84 µg/mL); in test [11] it was 12.5 µM (≈ 3.84 µg/mL); in [12], 12.5 µM (≈ 3.84 µg/mL); in [16], more than 50 µM. In addition, the CC50 in the test with HepG2 was more than 100 µM.

The record behind these values is ChEMBL document CHEMBL3832761, “MMV Pathogen Box Bioactivity Data” (2017).
